Results on one compound are retold here after ChEMBL document CHEMBL1128958, “Synthesis and biological activity of the neuronal calcium channel blocker 2-amino-1-(2,5-dimethoxyphenyl)-5-trifluoromethyl benzimidazole (NS-649)” (Bioorg Med Chem Lett, 1996).

The species named for one assay is Cavia porcellus. Description: Effect on [Ca2+]-induced contractions in potassium-depolarized guinea pig taenia coli. The class given is functional.
The species named for another assay is Mus musculus. Description: Concentration that blocked potassium evoked release of [3H]D-aspartate from mouse cerebellar granule neurons. The class given is functional.

As to `COc1ccc(OC)c(-n2c(N)nc3cc(C(F)(F)F)ccc32)c1`, the Concentration in the assay listed under Cavia porcellus worked out at 30 µM. For the same compound, the IC50 – broadly, the point on the concentration scale where inhibition reaches its midpoint – in the assay filed under Mus musculus was about 2400 nM.
